Reference: the OPERA property sets (Mansouri et al. 2018)

Conditions: not given
Compound `CCCCCCCC(=O)OCCCC` has a boiling point of 240 °C and a melting point of -42.9 °C.
With `CCOC(=O)C(Cl)Cc1cc(-n2nc(C)n(C(F)F)c2=O)c(F)cc1Cl` (stereo not given) the boiling point was 352 °C, the log10 vapour pressure (mmHg) was -6.92 and the melting point was -22.1 °C.
In the case of `C=Cc1ccccc1CC`, the boiling point is reported as 187 °C, the melting point is reported as -75.5 °C and the ready biodegradability is reported as “not readily biodegradable”.
`O=C(O)C(O)C(Cl)(Cl)Cl` (stereo not given) gave a melting point of 125 °C.
Compound `CC(=O)N1CCN(c2ccc(OC[C@H]3CO[C@](Cn4ccnc4)(c4ccc(Cl)cc4Cl)O3)cc2)CC1` has a melting point of 146 °C.
With `CCCCCCCC1CCCCC1` the boiling point was 244 °C, the log10 vapour pressure (mmHg) was -1.4 and the melting point was -30 °C.
With `c1ccc2c(c1)Cc1ccccc1C2` the boiling point was 305 °C and the melting point was 111 °C.
Work on `COc1cccc(OC)c1C(=O)O` yielded a log10 vapour pressure (mmHg) of -6.72.
`O=C(O)C(Br)(Br)Br` showed a log10 Henry constant (atm·m³/mol) of -8.48 and a melting point of 132 °C.
For `O=S(O)c1ccc(Cl)cc1`, the melting point was 99 °C.
`N#Cc1ccc(N)c2ccccc12` gave a melting point of 176 °C.
Compound `FC1(F)C(Cl)=C(Cl)C(F)(F)C(F)(F)C1(F)F` has a boiling point of 113 °C and a melting point of -70 °C.
Work on `O=C(O)c1cc([N+](=O)[O-])ccc1O` yielded a melting point of 230 °C.
`O=C1OC(=O)c2c(Br)c(Br)c(Br)c(Br)c21` showed a melting point of 275 °C.
In the case of `CC1Cc2ccccc2CC1C` (stereo not given), the melting point is reported as -5 °C.
Work on `COc1ccc(C(=O)c2ccccc2O)c(O)c1` yielded a melting point of 68 °C.
`CCOC(=O)c1ccc(O)c(OC)c1` showed a boiling point of 292 °C and a melting point of 44 °C.
`BrC(c1ccccc1)c1ccccc1` showed a melting point of 45 °C.
For `O=C(O)c1cccc(C(=O)O)c1`, the melting point was 347 °C and the ready biodegradability was “readily biodegradable”.
`FC1(F)C(F)(F)C(F)(F)C2(F)C(F)(C1(F)F)C(F)(F)C(F)(F)C1(F)C(F)(F)C(F)(F)C(F)(F)C(F)(F)C12F` (stereo not given) gave a boiling point of 210 °C and a melting point of -20 °C.
With `NS(=O)(=O)c1ccc(SCCO)c([N+](=O)[O-])c1` the melting point was 151 °C.
For `CCOc1ccc(C=O)cc1OCC`, the boiling point was 279 °C and the melting point was 22 °C.
In the case of `CCOCC`, the boiling point is reported as 34.6 °C, the log10 Henry constant (atm·m³/mol) is reported as -2.91 and the log10 Koa is reported as 2.19. The log10 vapour pressure (mmHg) was 2.73, the melting point was -116 °C and the ready biodegradability was “not readily biodegradable”.
With `O=Cc1c(Cl)cccc1Cl` the melting point was 71.5 °C and the ready biodegradability was “not readily biodegradable”.
Compound `Cc1cc(C)n(C)n1` has a boiling point of 170 °C.
With `CC(C)CCOCCC(C)C` the boiling point was 172 °C, the log10 vapour pressure (mmHg) was 0.146 and the ready biodegradability was “not readily biodegradable”.
Work on `CC(C)Br` yielded a boiling point of 59.5 °C, a log10 vapour pressure (mmHg) of 2.34 and a melting point of -89 °C. For the same compound, the ready biodegradability was “readily biodegradable”.
`O=C(O)CCCc1ccc(N(CCCl)CCCl)cc1` gave a melting point of 65 °C.
For `c1ccc2c(c1)cc1ccc3cc4ccccc4c4ccc2c1c34`, the log10 Koc (L/kg) was 5.71, the log10 biodegradation half-life (days) was 2.47 and the melting point was 282 °C.
In the case of `c1ccc(-c2cc3ccccc3[nH]2)cc1`, the melting point is reported as 190 °C and the ready biodegradability is reported as “not readily biodegradable”.
Work on `COc1ccccc1Br` yielded a boiling point of 216 °C and a melting point of 2.5 °C.
In the case of `C(=C\c1ccccc1)/c1ccccc1`, the boiling point is reported as 307 °C, the log10 Koa is reported as 7.48 and the log10 vapour pressure (mmHg) is reported as -2.61.
`Clc1ccc(Br)s1` gave a melting point of -20 °C.
`CC(=O)N(c1ccccc1)c1ccccc1` gave a melting point of 103 °C.
In the case of `c1cc2ccc3ccc4ccc5cccc6c(c1)c2c3c4c56`, the log10 Henry constant (atm·m³/mol) is reported as -6.48, the log10 Koc (L/kg) is reported as 4.61 and the log10 biodegradation half-life (days) is reported as 2.75. It also gave a log10 vapour pressure (mmHg) of -10 and a melting point of 278 °C.
`OC1CCCCC1` showed a boiling point of 161 °C, a log10 Henry constant (atm·m³/mol) of -5.36 and a log10 Koa of 5.18. The log10 vapour pressure (mmHg) was -0.0969, the melting point was 25.4 °C and the ready biodegradability was “readily biodegradable”.
With `BrCCCCCCCCCCBr` the ready biodegradability was “not readily biodegradable”.
Compound `COC(=O)c1ccccc1` has a boiling point of 199 °C, a log10 Koc (L/kg) of 2.1 and a log10 vapour pressure (mmHg) of -0.42. The melting point was -15 °C.
For `CC(=O)C=CC1=C(C)CCCC1(C)C`, the log10 vapour pressure (mmHg) was -1.27.
For `ClC(Cl)(Cl)c1ccc(C(Cl)(Cl)Cl)cc1`, the melting point was 109 °C.
`CCc1cccc(C)c1N` gave a boiling point of 231 °C and a melting point of -33 °C.
Work on `O=C(O)CNC(=O)OCc1ccccc1` yielded a melting point of 121 °C.
For `Clc1ccc(Cl)c(-c2cc(Cl)ccc2Cl)c1`, the log10 Henry constant (atm·m³/mol) was -3.7, the log10 Koa was 8.47 and the log10 Koc (L/kg) was 5.12. The ready biodegradability was “not readily biodegradable”.
Work on `c1ccc(C(=C(c2ccccc2)c2ccccc2)c2ccccc2)cc1` yielded a boiling point of 420 °C and a melting point of 225 °C.
With `CCCCCC(=O)Cc1cc(O)cc2c1C(=O)Oc1cc(O)c(C(=O)O)c(CCCCC)c1O2` the melting point was 205 °C.
With `CCCCCCCCCCCCCCCCCCCCBr` the log10 vapour pressure (mmHg) was -6.08 and the melting point was 37.5 °C.
Work on `CC12CCC(CC1)C(C)(C)O2` yielded a boiling point of 176 °C, a log10 vapour pressure (mmHg) of 0.279 and a melting point of 1.5 °C.
For `O=c1n(Cl)c(=O)n(Cl)c(=O)n1Cl`, the ready biodegradability was “not readily biodegradable”.
Compound `O=c1c2ccccc2sc2ccccc12` has a boiling point of 373 °C and a melting point of 209 °C.
For `CCOCc1ccco1`, the boiling point was 149 °C.
Work on `COc1cc2nc(N3CCN(C(=O)c4ccco4)CC3)nc(N)c2cc1OC` yielded a melting point of 279 °C.
Work on `CC(=O)c1ccccn1` yielded a boiling point of 192 °C.
`C#CCCO` gave a boiling point of 129 °C and a melting point of -63.6 °C.
`CC(=O)N[C@@H](CCC(=O)O)C(=O)O` gave a melting point of 199 °C.
Work on `CCCCCCc1ccc2ccccc2c1` yielded a boiling point of 324 °C and a melting point of -3 °C.
`CCOC(=O)CN1CCN(C(=O)/C=C\c2cc(OC)c(OC)c(OC)c2)CC1` showed a melting point of 96 °C.
In the case of `NC(Cc1ccccc1)C(=O)O` (stereo not given), the ready biodegradability is reported as “readily biodegradable”.
With `c1csc(-c2cccs2)c1` the boiling point was 260 °C and the melting point was 33 °C.
`FC(F)C(F)Cl` (stereo not given) showed a boiling point of 17 °C.
`CCC(CC)C(C)(C)C` gave a boiling point of 134 °C, a log10 vapour pressure (mmHg) of 1.05 and a melting point of -99.3 °C.
Work on `COC1=C(OC)C(=O)C(C)=CC1=O` yielded a melting point of 59.5 °C.
Compound `C1=CC=CC=CC=C1` has a boiling point of 140 °C, a log10 vapour pressure (mmHg) of 0.892 and a melting point of -4.7 °C.
`O=C(NC(=O)c1c(F)cccc1F)Nc1cc(Cl)c(OC(F)(F)C(F)C(F)(F)F)cc1Cl` (stereo not given) gave a melting point of 166 °C.
`CCCC(=O)c1cc(O)c(O)cc1O` gave a melting point of 154 °C.
Compound `C=Cc1ccc(O)cc1` has a log10 vapour pressure (mmHg) of -1.85 and a melting point of 73.5 °C.
In the case of `CCC(C)C(C)CC(C)C` (stereo not given), the boiling point is reported as 156 °C.
Compound `Cc1cccc([N+](=O)[O-])c1O` has a log10 Henry constant (atm·m³/mol) of -4.47 and a melting point of 70 °C.
For `O=[N+]([O-])c1cc([N+](=O)[O-])c2ccccc2c1O`, the melting point was 131 °C.
With `c1ccc(N2CCNCC2)cc1` the boiling point was 286 °C and the log10 vapour pressure (mmHg) was -2.26.
With `COc1ccc2cc3[n+](cc2c1OC)CCc1cc2c(cc1-3)OCO2` the melting point was 145 °C.
With `CC(O)c1ccccc1` (stereo not given) the boiling point was 205 °C, the log10 Koc (L/kg) was 1.5 and the melting point was 15 °C. The ready biodegradability was “readily biodegradable”.
Work on `Oc1cccc(O)c1` yielded a boiling point of 280 °C, a log10 Koc (L/kg) of 0.98 and a log10 vapour pressure (mmHg) of -3.31. The melting point was 111 °C and the ready biodegradability was “readily biodegradable”.
`CCOS(C)(=O)=O` gave a boiling point of 214 °C and a log10 vapour pressure (mmHg) of -0.686.
With `CN=C(O)Oc1cccc(C)c1` the log10 vapour pressure (mmHg) was -2.97, the melting point was 76.5 °C and the ready biodegradability was “not readily biodegradable”.
With `C1CCNCC1` the boiling point was 106 °C, the log10 Henry constant (atm·m³/mol) was -5.35 and the log10 Koa was 4.04. The log10 vapour pressure (mmHg) was 1.51, the melting point was -7 °C and the ready biodegradability was “readily biodegradable”.
`Cc1cc(Sc2cc(C)c(O)c(C(C)(C)C)c2)cc(C(C)(C)C)c1O` showed a melting point of 126 °C.
Compound `Cc1ccc(C)n1C` has a boiling point of 171 °C.
Compound `CC(C)(C)c1ccc2cc3ccccc3cc2c1` has a log10 vapour pressure (mmHg) of -6.19 and a melting point of 147 °C.
For `CN1C2CCC1CC(OC(=O)c1ccccc1)C2` (stereo not given), the melting point was 49 °C.
With `NCCc1c[nH]c2ccccc12` the melting point was 118 °C.
`O=C(O)c1ccc2c(c1)C(=O)c1ccccc1C2=O` showed a melting point of 291 °C.
With `C1=CCOC1` the boiling point was 66.5 °C and the log10 vapour pressure (mmHg) was 2.2.
`COC(=O)COc1ccc(Cl)cc1Cl` gave a log10 vapour pressure (mmHg) of -2.64 and a melting point of 119 °C.

Same assay, conditions: fish
Compound `Cc1cc2cc3cc(C)c(C)cc3cc2cc1C` has a log10 biotransformation half-life (days) of 0.59.
Compound `CCCCCCCC1CCCCC1` has a log10 biotransformation half-life (days) of 0.17.
For `CCOCC`, the log10 BCF was 0.73 and the log10 biotransformation half-life (days) was -0.7.
Work on `CC(C)CCOCCC(C)C` yielded a log10 BCF of 2.23 and a log10 biotransformation half-life (days) of -0.45.
With `Clc1ccc(Cl)c(-c2cc(Cl)ccc2Cl)c1` the log10 BCF was 4.26.
